In patent US6808904B2, “Herbicide-tolerant protox genes produced by DNA shuffling” (priority 1994, dated 2004):

Assays:
maize protox-1 mutants = experiment: Mutant screens of maize protox-1 (pMut-3) in the E. coli system; format: cell-based; settings: double mutant; screen on this herbicide
Experimental: The pMut-3 plasmid was transformed into the mutator XL1-Red strain as described above and the mutated DNA was isolated and plated on a herbicide concentration (formula XVII) that was lethal to the unmutagenized pMut-3 maize protox gene. Herbicide tolerant colonies were isolated after two days at 37° C. and analyzed as described above. […] Three of these mutations correspond to amino acid changes previously shown to confer tolerance at the homologous position in the Arabidopsis protox-1 gene. Two of the three are pMzC-1Val and pMzC-1Thr, converting the alanine (GCT) at amino acid 164 (SEQ ID NO:6) to either valine ([…]) or to threonine (ACT). This position corresponds to the pAraC-1 mutations described above (see, Table 1B; sub-sequence 3). The third analogous change, pMzC-3Ser, converts the glycine (GGT) at amino acid 165 to Serine (AGT), corresponding to the AraC-3Ser mutation described above (see, Table 1B; sub-sequence 4).
Additional mutant screens performed as described earlier in this example, except using formulas XXIIIa and XXIIIb instead of XVII, identified three additional amino acid changes that confer tolerant protox enzymes. […]

[1] = tested on: Arabidopsis line expressing AraC-2Ile+AraC305Leu; experiment: Cross tolerance in a seed germination assay, homozygous Arabidopsis line with AraC-2Ile+AraC305Leu; format: in vivo, Arabidopsis thaliana; settings: AraC-2Ile+AraC305Leu line vs wt
Experimental: Using the procedure described above, an Arabidopsis protox-1 cDNA containing a TAC to ATG (Tyrosine to Methionine) change at nucleotides 1306-1308 in the protox-1 sequence (SEQ ID NO:1) was fused to the native protox-1 promoter fragment and transformed into Arabidopsis thaliana. […] Seed from the vacuum infiltrated plants was collected and plated on a range (10.0 nM-1.0 uM) of a protox inhibitory aryluracil herbicide of formula XVII. Multiple experiments with wild type Arabidopsis have shown that a 10.0 nM concentration of this compound is sufficient to prevent normal seedling germination. Transgenic seeds expressing the AraC-2Met altered enzyme fused to the native protox-1 promoter produced normal Arabidopsis seedlings at herbicide concentrations up to 500 nM, indicating at least 50-fold higher herbicide tolerance when compared to wild-type Arabidopsis. This promoter/altered protox enzyme fusion therefore functions as an effective selectable marker for plant transformation. Several of the plants that germinated on 100.0 nM of protox-inhibiting herbicide were transplanted to soil, grown 2-3 weeks, and tested in a spray assay with various concentrations of the protox-inhibiting herbicide. When compared to empty vector control transformants, the AraPT1Pro/AraC-2Met transgenics were >10-fold more tolerant to the herbicide spray.
Using the procedure described above, an Arabidopsis protox-1 cDNA containing both a TAC to ATC (tyrosine to isoleucine) change at nucleotides 1306-1308 and a TCA to TTA (serine to leucine) change at nucleotides 945-947 in the protox-1 sequence (SEQ ID NO:1) was fused to the native protox-1 promoter fragment and transformed into Arabidopsis thaliana.

[2] = molecular target: T1, plant protox mutants (MzC-1Val, maize protox-1) in SASX38 (Arabidopsis thaliana, UniProt P55826, A220V/A252T/A259N/A262P/A292S/A82G/A83V/D204A/D323E/D487E/D93A/DEL80-81/E103P/E263P/E288N/E311D/E351S/E499D/F107Y/F178L/F250I/F483L/G171P/G277A/G306S/G313K/G344N/G441S/H340Y/I100T/I174L/I370V/I421V/I485L/I71T/I87L/INS101VE/K237R/K257S/K359R/K388Q/K457N/K465V/K78R/K92R/L137F/L159P/L310S/L325V/L345I/L360F/L436V/L86V/M122V/N105E/N149E/N241T/N258K/N316V/N355D/N459T/N85D/P266A/P418D/P458S/P84G/Q240E/Q272K/R284A/R293S/S186P/S291T/S305T/S312D/S330A/S352D/S369T/S430A/S439T/S460A/S491A/S492A/S495R/S496G/T141N/T160A/T318E/T379K/T397S/T461V/T488A/T494D/T56K/V126A/V334I/V337I/V95P); experiment: Bacterial cross-tolerance testing of resistant mutant plasmids in SASX38, maize protox-1 mutant; format: cell-based; settings: mutant MzC-1Val vs WT plasmid in SASX38
T1 construct: expressed in transfected cells; host or cells: E. coli SASX38 (hemG mutant)
T1 sequence (P55826 other isoform, or with tags, fused parts or gaps with the stated changes): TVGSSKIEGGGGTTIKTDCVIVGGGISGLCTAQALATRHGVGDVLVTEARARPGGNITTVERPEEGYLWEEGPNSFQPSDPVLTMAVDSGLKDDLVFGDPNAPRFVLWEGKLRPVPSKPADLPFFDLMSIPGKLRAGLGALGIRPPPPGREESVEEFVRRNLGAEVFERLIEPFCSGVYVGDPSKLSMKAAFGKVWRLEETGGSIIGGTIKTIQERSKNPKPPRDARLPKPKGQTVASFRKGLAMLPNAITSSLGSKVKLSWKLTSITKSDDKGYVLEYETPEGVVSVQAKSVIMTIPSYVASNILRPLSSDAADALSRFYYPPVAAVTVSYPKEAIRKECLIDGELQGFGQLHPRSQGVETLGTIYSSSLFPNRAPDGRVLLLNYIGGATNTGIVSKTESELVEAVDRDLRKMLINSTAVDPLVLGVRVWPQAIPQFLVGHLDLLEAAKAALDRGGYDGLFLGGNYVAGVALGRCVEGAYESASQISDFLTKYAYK
Experimental: (§1) Resistant mutant plasmids, originally identified based on resistance against a single protox inhibitory herbicide, were tested against a spectrum of other protox inhibiting compounds. For this test, the SASX38 strain containing the wild-type plasmid is plated on a range of concentrations of each compound to determine the lethal concentration for each one. Resistant mutant plasmids in SASX38 are plated and scored for the ability to survive on a concentration of each compound at least 10 fold higher than the concentration that is lethal to the SASX38 strain containing the wild-type plasmid.

[3] = molecular target: T2, plant protox mutants (Arabidopsis protox-1) in SASX38 (Arabidopsis thaliana, UniProt P55826, A220V/T56K); experiment: Bacterial cross-tolerance testing of resistant mutant plasmids in SASX38, Arabidopsis protox-1 mutants; format: cell-based; set-up: key to Cross tolerance, AraC-1Val / Cross tolerance, AraC-2Cys / Cross tolerance, AraC-1Thr / Cross tolerance, AraC-3Thr / Cross tolerance, AraC-2Ile / Cross tolerance, AraC-2Cys + AraC425Ser: + = 10× or more tolerant than WT; ++ = 100× or more tolerant than WT; − = no cross tolerance; settings: mutant AraC-1Val vs WT plasmid in SASX38
T2 construct: contains only 17 amino acids of the putative chloroplast transit peptide; expressed in transfected cells; host or cells: E. coli SASX38 (hemG mutant)
T2 sequence (P55826 41-537 T56K/A220V): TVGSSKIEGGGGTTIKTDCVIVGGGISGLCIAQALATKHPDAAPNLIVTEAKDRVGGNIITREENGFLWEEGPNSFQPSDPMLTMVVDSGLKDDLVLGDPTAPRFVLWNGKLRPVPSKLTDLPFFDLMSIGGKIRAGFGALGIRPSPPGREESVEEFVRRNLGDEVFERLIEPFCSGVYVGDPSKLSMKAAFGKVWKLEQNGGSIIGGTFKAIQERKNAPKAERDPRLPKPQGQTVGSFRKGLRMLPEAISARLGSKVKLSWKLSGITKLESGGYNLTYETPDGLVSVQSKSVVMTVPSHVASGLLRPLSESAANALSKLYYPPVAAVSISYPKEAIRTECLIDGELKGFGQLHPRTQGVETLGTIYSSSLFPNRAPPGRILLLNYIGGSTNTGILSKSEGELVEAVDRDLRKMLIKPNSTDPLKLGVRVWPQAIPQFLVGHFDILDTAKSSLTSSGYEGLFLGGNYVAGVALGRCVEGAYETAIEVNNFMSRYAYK
Experimental: as §1

[4] = molecular target: T3, plant protox mutants (Arabidopsis protox-1) in SASX38 (Arabidopsis thaliana, UniProt P55826, A220T/T56K); experiment: as above; format: cell-based; set-up: key to Cross tolerance, AraC-1Val / Cross tolerance, AraC-2Cys / Cross tolerance, AraC-1Thr / Cross tolerance, AraC-3Thr / Cross tolerance, AraC-2Ile / Cross tolerance, AraC-2Cys + AraC425Ser: + = 10× or more tolerant than WT; ++ = 100× or more tolerant than WT; − = no cross tolerance; settings: mutant AraC-1Thr vs WT plasmid in SASX38
T3 construct: contains only 17 amino acids of the putative chloroplast transit peptide; expressed in transfected cells; host or cells: E. coli SASX38 (hemG mutant)
T3 sequence (P55826 41-537 T56K/A220T): as the sequence (P55826 41-537 T56K/A220V) above, with V180T counted along it
Experimental: as §1

[5] = tested on: plant protox mutants (Arabidopsis protox-1) in SASX38; experiment: as above; format: cell-based; set-up: key to Cross tolerance, AraC-1Val / Cross tolerance, AraC-2Cys / Cross tolerance, AraC-1Thr / Cross tolerance, AraC-3Thr / Cross tolerance, AraC-2Ile / Cross tolerance, AraC-2Cys + AraC425Ser: + = 10× or more tolerant than WT; ++ = 100× or more tolerant than WT; − = no cross tolerance; settings: mutant AraC-3Thr vs WT plasmid in SASX38
Experimental: as §1

[6] = molecular target: T4, plant protox mutants (Arabidopsis protox-1) in SASX38 (Arabidopsis thaliana, UniProt P55826, T56K/Y426C); experiment: as above; format: cell-based; set-up: key to Cross tolerance, AraC-1Val / Cross tolerance, AraC-2Cys / Cross tolerance, AraC-1Thr / Cross tolerance, AraC-3Thr / Cross tolerance, AraC-2Ile / Cross tolerance, AraC-2Cys + AraC425Ser: + = 10× or more tolerant than WT; ++ = 100× or more tolerant than WT; − = no cross tolerance; settings: mutant AraC-2Cys vs WT plasmid in SASX38
T4 construct: contains only 17 amino acids of the putative chloroplast transit peptide; expressed in transfected cells; host or cells: E. coli SASX38 (hemG mutant)
T4 sequence (P55826 41-537 T56K/Y426C): as the sequence (P55826 41-537 T56K/A220V) above, with V180A, Y386C counted along it
Experimental: as §1

[7] = molecular target: T5, plant protox mutants (Arabidopsis protox-1) in SASX38 (Arabidopsis thaliana, UniProt P55826, N425S/T56K/Y426C); experiment: as above; format: cell-based; set-up: key to Cross tolerance, AraC-1Val / Cross tolerance, AraC-2Cys / Cross tolerance, AraC-1Thr / Cross tolerance, AraC-3Thr / Cross tolerance, AraC-2Ile / Cross tolerance, AraC-2Cys + AraC425Ser: + = 10× or more tolerant than WT; ++ = 100× or more tolerant than WT; − = no cross tolerance; settings: mutant AraC-2Cys + AraC425Ser
T5 construct: contains only 17 amino acids of the putative chloroplast transit peptide; expressed in transfected cells; host or cells: E. coli SASX38 (hemG mutant)
T5 sequence (P55826 41-537 T56K/N425S/Y426C): as the sequence (P55826 41-537 T56K/A220V) above, with V180A, N385S, Y386C counted along it
Experimental: as §1

[8] = molecular target: T6, plant protox mutants (Arabidopsis protox-1) in SASX38 (Arabidopsis thaliana, UniProt P55826, N425S/T56K/Y426L); experiment: as above; format: cell-based; set-up: key to Cross tolerance, AraC-1Val / Cross tolerance, AraC-2Cys / Cross tolerance, AraC-1Thr / Cross tolerance, AraC-3Thr / Cross tolerance, AraC-2Ile / Cross tolerance, AraC-2Cys + AraC425Ser: + = 10× or more tolerant than WT; ++ = 100× or more tolerant than WT; − = no cross tolerance; settings: mutant AraC-2Leu + AraC425Ser
T6 construct: contains only 17 amino acids of the putative chloroplast transit peptide; expressed in transfected cells; host or cells: E. coli SASX38 (hemG mutant)
T6 sequence (P55826 41-537 T56K/N425S/Y426L): as the sequence (P55826 41-537 T56K/A220V) above, with V180A, N385S, Y386L counted along it
Experimental: as §1

[9] = molecular target: T7, plant protox mutants (Arabidopsis protox-1) in SASX38 (Arabidopsis thaliana, UniProt P55826, N425S/T56K/Y426M); experiment: as above; format: cell-based; set-up: key to Cross tolerance, AraC-1Val / Cross tolerance, AraC-2Cys / Cross tolerance, AraC-1Thr / Cross tolerance, AraC-3Thr / Cross tolerance, AraC-2Ile / Cross tolerance, AraC-2Cys + AraC425Ser: + = 10× or more tolerant than WT; ++ = 100× or more tolerant than WT; − = no cross tolerance; settings: mutant AraC-2Met + AraC425Ser
T7 construct: contains only 17 amino acids of the putative chloroplast transit peptide; expressed in transfected cells; host or cells: E. coli SASX38 (hemG mutant)
T7 sequence (P55826 41-537 T56K/N425S/Y426M): as the sequence (P55826 41-537 T56K/A220V) above, with V180A, N385S, Y386M counted along it
Experimental: as §1

[10] = molecular target: T8, plant protox mutants (Arabidopsis protox-1) in SASX38 (Arabidopsis thaliana, UniProt P55826, A220L/T56K); experiment: as above; format: cell-based; set-up: key to Cross tolerance, AraC-1Val / Cross tolerance, AraC-2Cys / Cross tolerance, AraC-1Thr / Cross tolerance, AraC-3Thr / Cross tolerance, AraC-2Ile / Cross tolerance, AraC-2Cys + AraC425Ser: + = 10× or more tolerant than WT; ++ = 100× or more tolerant than WT; − = no cross tolerance; settings: mutant AraC-1Leu
T8 construct: contains only 17 amino acids of the putative chloroplast transit peptide; expressed in transfected cells; host or cells: E. coli SASX38 (hemG mutant)
T8 sequence (P55826 41-537 T56K/A220L): as the sequence (P55826 41-537 T56K/A220V) above, with V180L counted along it
Experimental: as §1

## Cn1nc(-c2ncc(Cl)cc2F)c(Cl)c1OC(F)F [Formula XXIIIa]
Maize protox-1 mutants
  tolerance of maize enzyme Mz347Ser453Thr: highly tolerant

## CS(=O)(=O)NC(=O)c1cc(Oc2ccc(C(F)(F)F)cc2Cl)ccc1[N+](=O)[O-] [III]
[1]
  Tolerance: + (+ ≧ 10× more tolerant than wt)

## O=C([O-])c1cc(Oc2ccc(C(F)(F)F)cc2Cl)ccc1[N+](=O)[O-].[Na+] [II]
[1]
  Tolerance: + (+ ≧ 10× more tolerant than wt)

## COC(=O)c1cc(Oc2ccc(Cl)cc2Cl)ccc1[N+](=O)[O-] [IVb]
[1]
  Tolerance: + (+ ≧ 10× more tolerant than wt)

## CCOc1cc(Oc2ccc(C(F)(F)F)cc2Cl)ccc1[N+](=O)[O-] [IVc]
[1]
  Tolerance: + (+ ≧ 10× more tolerant than wt)

## CCOC(=O)C(C)OC(=O)c1cc(Oc2ccc(C(F)(F)F)cc2Cl)ccc1[N+](=O)[O-] (stereo not drawn) [IVd]
[1]
  Tolerance: ± (± ≦ 10× more tolerant than wt)

## CCOC(=O)COc1cc(-c2nn(C)c(OC(F)F)c2Cl)c(F)cc1Cl [XII]
[2]
  Cross tolerance, MzC-1Val: ++ (++ = 100× or more tolerant than WT)
[3]
  Cross tolerance, AraC-1Val: + (+ = 10× or more tolerant than WT)
[4]
  Cross tolerance, AraC-1Thr: ++ (++ = 100× or more tolerant than WT)
[5]
  Cross tolerance, AraC-3Thr: ++ (++ = 100× or more tolerant than WT)
[6]
  Cross tolerance, AraC-2Cys: −

## C#CCN1C(=O)COc2cc(F)c(N3C(=O)C4=C(CCCC4)C3=O)cc21 [XVI]
[2]
  Cross tolerance, MzC-1Val: + (+ = 10× or more tolerant than WT)
[1]
  Tolerance: +++ (+++ ≧ 1000× more tolerant than wt)
[7]
  Cross tolerance, AraC-2Cys + AraC425Ser: + (+ = 10× or more tolerant than WT)
[3]
  Cross tolerance, AraC-1Val: −
[4]
  Cross tolerance, AraC-1Thr: −
[5]
  Cross tolerance, AraC-3Thr: −
[8]
  Cross tolerance, AraC-2Leu + AraC425Ser: ++ (++ = 100× or more tolerant than WT)
[9]
  Cross tolerance, AraC-2Met + AraC425Ser: ++ (++ = 100× or more tolerant than WT)
[6]
  Cross tolerance, AraC-2Cys: −

## C#CC(C)Oc1cc(N2C(=O)C3=C(CCCC3)C2=O)c(F)cc1Cl (stereo not drawn) [XV]
[2]
  Cross tolerance, MzC-1Val: + (+ = 10× or more tolerant than WT)
[10]
  Cross tolerance, AraC-1Leu: ++ (++ = 100× or more tolerant than WT)
[7]
  Cross tolerance, AraC-2Cys + AraC425Ser: ++ (++ = 100× or more tolerant than WT)
[3]
  Cross tolerance, AraC-1Val: + (+ = 10× or more tolerant than WT)
[4]
  Cross tolerance, AraC-1Thr: + (+ = 10× or more tolerant than WT)
[5]
  Cross tolerance, AraC-3Thr: + (+ = 10× or more tolerant than WT)
[9]
  Cross tolerance, AraC-2Met + AraC425Ser: ++ (++ = 100× or more tolerant than WT)
[6]
  Cross tolerance, AraC-2Cys: + (+ = 10× or more tolerant than WT)

## CC(Cl)C(=O)Nc1c([N+](=O)[O-])cnn1-c1c(Cl)cc(C(F)F)cc1Cl (stereo not drawn) [XXIa]
[1]
  Tolerance: + (+ ≧ 10× more tolerant than wt)

## Cc1nn(-c2cc(NS(C)(=O)=O)c(Cl)cc2Cl)c(=O)n1C(F)F [X]
[1]
  Tolerance: + (+ ≧ 10× more tolerant than wt)
